Assay results reported in a melting point compilation (Tetko et al.; mined from patent text by program, amines drawn as free bases though some values may be those of a salt).

| Compound | melting point [°C] |
| --- | --- |
| CC1(C)Oc2ccc([N+](=O)[O-])cc2C(n2ccccc2=O)=C1CBr | 221 |
| CCC(C)c1c(OC)ccc2c1oc1ccc(C#N)cc12 (configuration not stated) | 80 to 82 |
| COC(=O)C1C=CCn2c(=O)n(CO)c(=O)n21 (configuration not stated) | 123 to 125 |
| COc1ccc(C2=NN(c3ccc(O)cc3)C(=O)C(C)(C)C2)cc1OC | 176 to 178 |
| CCOP(=O)(OCC)SCc1ccc(-c2nc(S)c3cc(Br)ccc3n2)cc1 | 196 to 199 |
| CCCCCCCCc1sc(NC(=O)c2cc3ccccc3n2CCC(=O)OCC)nc1-c1cc(OC)c(Cl)cc1OC | 59 to 61 |
| N[C@H]1CCN(c2ccc3c(C(=O)NCCc4ccccc4Cl)c(Cl)ccc3n2)C1 | 196 to 198 |
| CC(C)(C)OC(=O)N[C@@H](Cc1ccc(Cl)cc1)C(=O)NC1CCC(Nc2cccc3c2C(=O)c2ccccc2C3=O)CC1 (some centres not stated) | 190 |
| Cc1cn(CCC(=O)N(C)C)nc1-c1ccccc1 | 60 to 63 |
| COC(=O)CCc1cnoc1-c1ccc(OC)c(OC)c1 | 68 to 69 |
| O=C(CCc1cccnc1)Nc1cccc(-c2ccnc3c(C(=O)c4cccs4)cnn23)c1 | > 200 |
| COc1ccc(C=CC(=O)NO)cc1OC | 183 to 185 |
| CCC(=O)N1CC(=O)C2=C(C1)CN1NC(N3CCOCC3)=NC1=N2 | 278 to 280 |
| O=S(=O)(Nc1n[nH]c(SCc2ccc(Oc3ccc(F)cc3)cc2)c1-c1ccccn1)c1c(Cl)cccc1Cl | 185 to 186 |
| O=C(N1CCOCC1)N1Cc2c(-c3noc(C4CC4)n3)ncn2-c2ccccc21 | 198 |
| CCCCCCCCCCNC(=O)CCCO | 74 to 75 |
| Cc1ccc(S(=O)(=O)ON=C2CCOc3cc(Cl)c(Cl)cc32)cc1 | 180 to 184 |
| COc1ccc(-c2nc(-c3cccs3)c[nH]2)cc1C | 110 to 114 |
| CCc1nc2c(c(=O)n(C)c(=O)n2-c2ccc(Cl)cc2Cl)n1Cc1ccc(OC)cc1 | 209 to 210 |
| Cc1nc2c(-c3cccc(N4CCC(N5CCCC5)CC4)c3)cnn2c(N)c1-c1cccc(Cl)c1 | 188 to 193 |
| COP(=O)(Nc1ccc(N)cc1)OC | 125 |
| CC1(Br)COc2ccc(C#N)cc21 (configuration not stated) | 163 to 165 |
| Cc1noc(-c2ncn3c2CN(C)C(=O)c2c(Cl)cccc2-3)n1 | 212 to 213 |
| Cn1nc(-c2cccc(Br)c2)cc1C(=O)O | 166 to 169 |
| O=C1OC(CN2CCC(O)(c3ccccc3)CC2)CN1c1ccccc1 (configuration not stated) | 121 to 122 |

| Compound | melting point [°C] |
| --- | --- |
| CCOP(=O)(CCc1cccc(-c2nc(=O)c3ccccc3s2)n1)OCC | 149 to 150 |
| COc1cc(C(=O)N[C@H]2CCNC2)ccc1Nc1ncc2c(n1)N(C1CCCCC1)CC(F)(F)C(=O)N2C | 195 to 198 |
| COC(=O)SC1C2=C(CCCC2)C(=O)N1c1ccc(Cl)cc1F (configuration not stated) | 80 to 81 |
| CC(SC1COC(c2cccc(C(=O)Nc3ccc(Cl)cc3)c2)OC1)C(O)(Cn1cncn1)c1ccc(F)cc1F (configuration not stated) | 90 |
| Cc1nc(-n2cnn(CC3CC3(F)F)c2=O)sc1C(=O)O (configuration not stated) | 220 to 222 |
| Cc1c(-c2ccccc2)oc2c(OCCCl)cccc2c1=O | 141 to 142 |
| CCOC(=O)c1cn(-c2ccc(OC)cc2)c2c(F)c(F)c(F)c(C)c2c1=O | 175 to 176 |
| CC1=CN(C)C2=NC(C)N(c3ccc(C#N)cc3)C2=C1 (configuration not stated) | 260 to 262 |
| Cc1c(NC(=O)c2ccc(-c3ccc(Cl)cc3)nc2)ccc2cc(CN3CCCC3)cnc12 | 234 to 236 |
| C=C(C[C@@H](Cc1ccccc1)C(=O)N1CCOCC1)[C@H](C)[C@H](Cc1ccccc1)C(=O)N1CCOCC1 (relative stereo) | 125 to 126 |
| CC1(C)CCC(C)(C)c2cc(C(C)(O)C(=O)O)ccc21 (configuration not stated) | 149 to 150 |
| Cn1c(C(F)(F)F)cc(=O)n(-c2cc(Oc3ccccc3OCC(=O)OC(C)(C)C)c(Cl)cc2F)c1=O | 55.6 |
| COCN1C(C)=C(C(=O)O)C(c2ccccc2C(F)(F)F)C(C(=O)OCOC(=O)C(C)(C)C)=C1C (single isomer, unassigned; (+)) | 69 to 70 |
| CC(C)c1cc(C(C)C)c(NC(=O)CN2CCN(CCCSc3nc4ccccc4s3)CC2)c(C(C)C)c1 | 107 to 108 |
| Cc1ccc(C2SCC(=O)CS2)cc1 | 112 to 113 |
| COc1cc(OC)c([N+](=O)[O-])cc1[N+](=O)[O-] | 153 to 155 |
| O=C(O)C1=CSC2C(=Cc3cc4c(s3)-c3cccnc3SC4)C(=O)N12 (configuration not stated) | 113 to 115 |
| CC(C)c1ccc(NC(=O)OC(C)(C)C)c(NC(=O)CC(=O)c2ccnc(C#N)c2)c1 | 163 to 165 |
| CC1(C)CN(CC(C)(O)c2ccc3c(c2)OCO3)c2nc(-c3ccncn3)cc(=O)n2C1 (configuration not stated) | 194 to 196 |
| COC(=O)CCCCCCCCCCC(C)=S | < 25 |
| O=C(O)CCCCSc1nc2c(F)c(F)cc(F)c2s1 | 56 to 58 |
| COc1ccc(-n2c(C)nnc2S)cc1 | 214 |
| Cc1cccc2c1N(C)CS2=O (configuration not stated) | 122 to 124 |
| O=C(Nc1c([N+](=O)[O-])cc(C(F)(F)F)cc1[N+](=O)[O-])C(F)(F)F | 222 to 224 |
| Cn1c(C(F)(F)F)cc(=O)n(-c2cc(OC(=O)OCC(Cl)(Cl)Cl)c(Cl)cc2F)c1=O | 140 to 142 |

| Compound | melting point [°C] |
| --- | --- |
| CCOc1ccc2c(c1)n(C1CCCCC1)c(=O)n2Cc1ccc(C(=O)NC(C)(C)CN(C)C)cc1OC | 161 |
| CC(C)NC(=O)N[C@@H](Cc1ccccc1)[C@H](O)[C@H](O)[C@H](Cc1ccccc1)NC(=O)NC(C)C | 220 to 222 |
| Clc1ccc2c(c1)CCc1cccc3c1C2CN=C3 (configuration not stated) | 106 |
| CCOC(=O)Cc1sc(Sc2cc(C(=O)OC)c3ccccc3n2)nc1C | 128 to 131 |
| CCCc1nn(-c2ccc(C(F)(F)F)cn2)cc1CCCOc1c(CC(=O)O)cccc1OC | 122 to 123 |
| Cc1nnc2cc(-c3ccccc3Cl)c3cc(Cl)ccc3n12 | 257 to 259 |
| Cc1ccccc1NC(=O)CN1CC2CCC(C1)N2S(=O)(=O)c1ccccc1 | 169 to 170 |
| Cc1[nH]c2c(N3CCNCC3)cccc2c1S(=O)(=O)c1ccccc1 | 188 to 190 |
| COc1ccccc1C1C2CCC(C2)C12CCC(=S)N2 (configuration not stated) | 194 |
| CN(C)C=C1C(=O)N(c2ccccc2)C(=O)N1C | 131 to 133 |
| COc1ccc2c(N(C)CCc3ccccn3)noc2c1 | 152 to 153 |
| Cn1c(=O)c(=O)[nH]c2cc([N+](=O)[O-])c([N+](=O)[O-])cc21 | 370 to 380 |
| COc1ccc(CCNC(=O)C(F)(F)F)c2ccc(=O)[nH]c12 | 181 to 184 |
| OCC1OC(n2cnc3c(NC4CCC(O)C4)ncnc32)C(O)C1O (configuration not stated) | 208 to 210 |
| O=C(O)CCCCC[C@@H]1C[C@@H](NS(=O)(=O)c2ccc(Cl)cc2)CN1S(=O)(=O)c1ccc(Cl)cc1 | 124 to 125 |
| CC(C)c1ccc2c(c1)CCN2C(=O)Nc1cccnc1 | 163 to 165 |
| COc1ccc(C=C(c2ccc(OC)cc2)c2ccc(OC)cc2)cc1 | 100 to 101 |
| NC1CCCN(c2ncc3ncnc(Nc4ccc(F)c(Cl)c4)c3n2)CC1 (configuration not stated) | 122 to 124 |
| O=c1cc2c(nn1-c1ccc(Cl)cc1)-c1cc(Br)sc1S(=O)CC2 (configuration not stated) | 184 to 185 |
| O=C(Nc1ccc(C2CCN(Cc3ccccc3)CC2)cc1)c1ccccc1-c1ccc(C(F)(F)F)cc1 | 134 |
| COc1cc2c3c4c(c(-c5ccccc5)cc3n(C)c2cc1OS(=O)(=O)C(F)(F)F)C(=O)NC4=O | 244 to 246 |
| CCCCOc1cc(C(=O)NCCN(CC)CC)cc(S(N)(=O)=O)c1Cc1ccccc1 | 163 |
| Cc1nc(-c2cccc(Nc3ccc(I)cc3[N+](=O)[O-])c2)cs1 | 137 to 138 |
| CC(C)(C)c1nc2cc(N3CCCC3)c([N+](=O)[O-])cc2s1 | 115 to 117 |
| Cc1nc(NC(=O)c2ccc(-c3nn[nH]n3)cc2)sc1C(=O)NCc1ccccc1 | > 300 |

| Compound | melting point [°C] |
| --- | --- |
| O=C(O)c1ccccc1Sc1cccc(OCc2ccc3ccccc3n2)c1 | 169 to 171 |
| CCc1ncnc(N[C@H]2CC[C@@H](C#N)CC2)c1Cl | 131 to 132 |
| COc1ncccc1OCC1(c2onc(-c3ccc(O)cc3)c2-c2ccccc2)CC1 | 189 to 190 |
| N#Cc1cc([N+](=O)[O-])ccc1Oc1ccccc1 | 126 |
| COCCOCOc1c(C(C)(C)C)cc(-c2n[nH]c(=S)s2)cc1C(C)(C)C | 134 to 135 |
| CCCc1c(O)ccc2[nH]c(C(=O)OCC)cc12 | 185 to 186 |
| COC(=O)CCc1cc(=O)n2nc(C)nc2[nH]1 | 222 to 225 |
| CC(=O)n1c(CCc2ccccc2)cc2c(I)ccnc21 | 109 to 110 |
| COCCOc1ccc(/C=C/C(=O)NS(=O)(=O)c2cccnc2)c(Oc2ncc(C(F)(F)F)cc2Cl)c1 | 165 to 167 |
| CCSCc1cc2cc(CN3CCOCC3)cc3c(=O)c(C(=O)NCc4ccc(Cl)cc4)cn1c23 | 177 to 178 |
| OCc1cc(-c2ccccc2)nn1Cc1ccc(Cl)cc1Cl | 140 to 141 |
| CC(=O)N[C@H](CO)C(=O)NCc1ccc(N=[N+]=[N-])cc1 | 161 to 163 |
| CC=CCC1C(=O)c2cc(OC)c(Cl)cc2C1(C)C (racemic) | 86 |
| CNC(=S)N(C)NC(=O)c1cccs1 | 176 to 178 |
| COc1ccc2c(c1)Sc1c(cc(OC)c(OC)c1Br)N2C(C)=O | 147 to 149 |
| Cc1csc(C)c1S(=O)(=O)Cl | 79 |
| O=C(NC1CC1c1ccccc1)C1Cc2ccccc2N1S(=O)(=O)c1ccc(-c2ccc(F)cc2)cc1 (configuration not stated) | 80 |
| NC(=O)CCC(CCCCNS(=O)(=O)c1ccc(Cl)cc1)CCCc1cccnc1 (configuration not stated) | 100 to 102 |
| O=C1Nc2ccc(F)c(F)c2C(C#Cc2ccccn2)(C(F)(F)F)N1 (racemic) | 219 to 220 |
| CC(=O)Nc1cc(-n2c(-c3ccccc3)cc3c2CCCC3)cc(C(=O)O)c1O | 232 to 234 |
| Cc1ccc(C(=O)Nc2ccc(CN3CCCCC3)c(C(F)(F)F)c2)cc1-c1ccc2cnncc2c1 | 194 to 195 |
| CCOC(=O)c1csc(-c2ncccc2O)n1 | 131 to 134 |
